Results reported in patent US6479435B1, “Diaryl ethers and processes for their preparation and herbicidal and desiccant compositions containing them” (ISK Americas Incorporated, priority 1997, dated 2002).

Experiments:
Assay type in all cases: in vivo
[1] = tested on: large crabgrass (Digitaria sanguinalis, DIGSA); experiment: Post-emerge greenhouse herbicide test, phytotoxicity rating; details: Digitaria sanguinalis, post-emergence, 336 h, 14 days after application, scale 0-100; for pest or weed control at 63 g/ha: rate 63 g ai/ha; for pest or weed control at 500 g/ha: rate 500 g ai/ha
Procedure, shortened: (§1)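 Plants at the 2-3 leaf stage, sown 8-21 days earlier, were track-sprayed post-emergence with compound in acetone plus 0.25% v/v non-ionic surfactant at 63-1000 g ai/ha (187 l/ha). Damage was rated at 14 days on a 0-100 scale (0 none, 100 all plants dead), for both crop injury and weed control.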

[2] = tested on: lambsquarters (Chenopodium album, CHEAL); experiment: as above; details: Chenopodium album, post-emergence, 336 h, 14 days after application, scale 0-100; for pest or weed control at 63 g/ha: rate 63 g ai/ha; for pest or weed control at 500 g/ha: rate 500 g ai/ha
Procedure, shortened: as §1

[3] = tested on: velvetleaf (Abutilon theophrasti, ABUTH); experiment: as above; details: Abutilon theophrasti, post-emergence, 336 h, 14 days after application, scale 0-100; for pest or weed control at 63 g/ha: rate 63 g ai/ha; for pest or weed control at 500 g/ha: rate 500 g ai/ha
Procedure, shortened: as §1

[4] = tested on: barnyardgrass (Echinochloa crusgalli, ECHCG); experiment: as above; details: Echinochloa crus-galli, post-emergence, 336 h, 14 days after application, scale 0-100; for pest or weed control at 63 g/ha: rate 63 g ai/ha; for pest or weed control at 500 g/ha: rate 500 g ai/ha
Procedure, shortened: as §1

[5] = tested on: ivyleaf morningglory (Ipomoea hederacea, IPOHE); experiment: as above; details: Ipomoea, post-emergence, 336 h, 14 days after application, scale 0-100; for pest or weed control at 63 g/ha: rate 63 g ai/ha; for pest or weed control at 500 g/ha: rate 500 g ai/ha
Procedure, shortened: as §1

[6] = tested on: redroot pigweed (Amaranthus retroflexus, AMARE); experiment: as above; details: Amaranthus retroflexus, post-emergence, 336 h, 14 days after application, scale 0-100; for pest or weed control at 63 g/ha: rate 63 g ai/ha; for pest or weed control at 500 g/ha: rate 500 g ai/ha
Procedure, shortened: as §1

[7] = tested on: green foxtail (Setaria viridis, SETVI); experiment: as above; details: Setaria viridis, post-emergence, 336 h, 14 days after application, scale 0-100; for pest or weed control at 63 g/ha: rate 63 g ai/ha; for pest or weed control at 500 g/ha: rate 500 g ai/ha
Procedure, shortened: as §1

[8] = tested on: Johnsongrass (Sorghum halepense, SORHA); experiment: as above; details: Sorghum halepense, post-emergence, 336 h, 14 days after application, scale 0-100; for pest or weed control at 63 g/ha: rate 63 g ai/ha; for pest or weed control at 500 g/ha: rate 500 g ai/ha
Procedure, shortened: as §1

[9] = tested on: sicklepod (Cassia obtusifolia, CASOB); experiment: as above; details: Senna obtusifolia, post-emergence, 336 h, 14 days after application, scale 0-100; for pest or weed control at 63 g/ha: rate 63 g ai/ha; for pest or weed control at 500 g/ha: rate 500 g ai/ha
Procedure, shortened: as §1

[10] = tested on: lambsquarters (Chenopodium album, CHEAL); experiment: Pre-emerge greenhouse herbicide test, phytotoxicity rating; details: Chenopodium album, pre-emergence, 336 h, 14 days after application, rating scale 0-100; for pest or weed control at 125 g/ha: Rate 125 g al/ha; for pest or weed control at 500 g/ha: Rate 500 g al/ha
Procedure, shortened: (§2)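 Seeds sown in sandy loam one day before track-sprayer application of acetone solutions at 125–1000 g ai/ha (187 l/ha), then surface-watered to incorporate and bottom-watered. Injury scored visually at 14 days on a 0–100 scale (0 no damage, 100 complete death).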

[11] = tested on: velvetleaf (Abutilon theophrasti, ABUTH); experiment: as above; details: Abutilon theophrasti, pre-emergence, 336 h, 14 days after application, rating scale 0-100; for pest or weed control at 125 g/ha: Rate 125 g al/ha; for pest or weed control at 500 g/ha: Rate 500 g al/ha
Procedure, shortened: as §2

[12] = tested on: barnyardgrass (Echinochloa crusgalli, ECHCG); experiment: as above; details: Echinochloa crus-galli, pre-emergence, 336 h, 14 days after application, rating scale 0-100; for pest or weed control at 125 g/ha: Rate 125 g al/ha; for pest or weed control at 500 g/ha: Rate 500 g al/ha
Procedure, shortened: as §2

[13] = tested on: ivyleaf morningglory (Ipomoea hederacea, IPOHE); experiment: as above; details: Ipomoea, pre-emergence, 336 h, 14 days after application, rating scale 0-100; for pest or weed control at 125 g/ha: Rate 125 g al/ha; for pest or weed control at 500 g/ha: Rate 500 g al/ha
Procedure, shortened: as §2

[14] = tested on: green foxtail (Setaria viridis, SETVI); experiment: as above; details: Setaria viridis, pre-emergence, 336 h, 14 days after application, rating scale 0-100; for pest or weed control at 125 g/ha: Rate 125 g al/ha; for pest or weed control at 500 g/ha: Rate 500 g al/ha
Procedure, shortened: as §2

[15] = tested on: Johnsongrass (Sorghum halepense, SORHA); experiment: as above; details: Sorghum halepense, pre-emergence, 336 h, 14 days after application, rating scale 0-100; for pest or weed control at 125 g/ha: Rate 125 g al/ha; for pest or weed control at 500 g/ha: Rate 500 g al/ha
Procedure, shortened: as §2

SMILES | pest or weed control at 500 g/ha [1] | pest or weed control at 500 g/ha [2] | pest or weed control at 500 g/ha [3] | pest or weed control at 500 g/ha [4] | pest or weed control at 500 g/ha [5] | pest or weed control at 500 g/ha [6] | pest or weed control at 500 g/ha [7] | pest or weed control at 500 g/ha [8] | pest or weed control at 500 g/ha [9] | pest or weed control at 125 g/ha [10] | pest or weed control at 500 g/ha [10] | pest or weed control at 125 g/ha [11] | pest or weed control at 500 g/ha [11] | pest or weed control at 125 g/ha [12] | pest or weed control at 500 g/ha [12] | pest or weed control at 125 g/ha [13] | pest or weed control at 500 g/ha [13] | pest or weed control at 125 g/ha [14] | pest or weed control at 500 g/ha [14] | pest or weed control at 125 g/ha [15] | further results
Cc1nsc(Oc2cc(-n3c(=O)cc(C(F)(F)F)n(N)c3=O)c(F)cc2Cl)c1[N+](=O)[O-] [Compound 9-14, 1-Amino-3-[4-Chloro-2-fluoro-5-(3-methyl-4-nitroisothiazol-5-yloxy)phenyl]-6-trifluoromethyl-1,2,3,4-tetrahydropyrimidine-2,4-dione] | 100% | 100% | 100% | 100% | 100% | 100% | 100% | 100% | 100% | 100% | 100% | 100% | 100% | 95% | 90% | 100% | 100% | 100% | 100% | 95% | pest or weed control at 63 g/ha [1]: 30%; pest or weed control at 63 g/ha [2]: 80%; pest or weed control at 63 g/ha [3]: 100%; pest or weed control at 63 g/ha [4]: 10%; pest or weed control at 63 g/ha [5]: 95%; pest or weed control at 63 g/ha [6]: 100%; pest or weed control at 63 g/ha [7]: 80%; pest or weed control at 63 g/ha [8]: 40%; pest or weed control at 63 g/ha [9]: 60%; pest or weed control at 500 g/ha [15]: 100%
Nn1c(C(F)(F)F)cc(=O)n(-c2cc(Oc3ccccn3)c(Cl)cc2F)c1=O [Compound 9-15, 1-amino-3-[4-chloro-2-fluoro-5-(2pyridyloxy)phenyl]-6-trifluoromethyl-1,2,3,4-tetrahydropyrimidine-2,4-dione] | 100% | 100% | 100% | 99% | 100% | 100% | 100% | 100% | 100% | 100% | 100% | 100% | 100% | 100% | 100% | 100% | 100% | 100% | 100% | 100% | pest or weed control at 125 g/ha ([1]; rate 125 g ai/ha): 90%; pest or weed control at 125 g/ha ([2]; rate 125 g ai/ha): 100%; pest or weed control at 125 g/ha ([3]; rate 125 g ai/ha): 100%; pest or weed control at 125 g/ha ([4]; rate 125 g ai/ha): 90%; pest or weed control at 125 g/ha ([5]; rate 125 g ai/ha): 100%; pest or weed control at 125 g/ha ([6]; rate 125 g ai/ha): 100%; pest or weed control at 125 g/ha ([7]; rate 125 g ai/ha): 95%; pest or weed control at 125 g/ha ([8]; rate 125 g ai/ha): 95%; pest or weed control at 125 g/ha ([9]; rate 125 g ai/ha): 100%; pest or weed control at 500 g/ha [15]: 100%
Nn1c(C(F)(F)F)cc(=O)n(-c2cc(Oc3ncccn3)c(Cl)cc2F)c1=O [Compound 9-16, 1-Amino-3-[4-chloro-2-fluoro-5-(2-pyrimidyloxy)phenyl]-6-trifluoromethyl-1,2,3,4-tetrahydropyrimidine-2,4-dione] | 100% | 100% | 100% | 100% | 100% | 100% | 100% | 100% | 100% | 100% | 100% | 100% | 100% | 100% | 100% | 100% | 100% | 100% | 100% | 100% | pest or weed control at 63 g/ha [1]: 100%; pest or weed control at 63 g/ha [2]: 100%; pest or weed control at 63 g/ha [3]: 100%; pest or weed control at 63 g/ha [4]: 100%; pest or weed control at 63 g/ha [5]: 100%; pest or weed control at 63 g/ha [6]: 100%; pest or weed control at 63 g/ha [7]: 100%; pest or weed control at 63 g/ha [8]: 100%; pest or weed control at 63 g/ha [9]: 100%; pest or weed control at 500 g/ha [15]: 100%
Nn1c(C(F)(F)F)cc(=O)n(-c2cc(Oc3nccc(Cl)n3)c(Cl)cc2F)c1=O [Compound 9-17, 1-Amino-3-[4-chloro-2-fluoro-5-(4-chloro-2-pyrimidyloxy)phenyl]-6-trifluoromethyl-1,2,3,4-tetrahydropyrimidine-2,4-dione] | 10% | 90% | 100% | 60% | 95% | 95% | 10% | 80% | 0% | 100% | 100% | 100% | 100% | 20% | 100% | 20% | 100% | 90% | 100% | 30% | pest or weed control at 63 g/ha [1]: 10%; pest or weed control at 63 g/ha [2]: 80%; pest or weed control at 63 g/ha [3]: 100%; pest or weed control at 63 g/ha [4]: 0%; pest or weed control at 63 g/ha [5]: 100%; pest or weed control at 63 g/ha [6]: 95%; pest or weed control at 63 g/ha [7]: 10%; pest or weed control at 63 g/ha [8]: 0%; pest or weed control at 63 g/ha [9]: 0%; pest or weed control at 500 g/ha [15]: 90%
